We go through 17 compounds from patent publication US8114886B2, “Pyridylmethylsulfone derivative” (Daiichi Sankyo Company, Limited, priority 2005, dated 2012).

“Also recorded” adds a separate entry of the source. Like-named read-outs stand apart in the source and are kept apart here.

The test system of data set [1] is intracerebral amount of Aβ. In words: Assessment of β-amyloid protein production inhibitory action and immunosuppressing action in vivo. Particulars: male SD rats, oral, single dose, cerebrum Aβ after 3 hours, repeated administration for 7 days for immunosuppression. An excerpt:
As an example of the compound (1), the compounds described in Example 22, Example 85, Example 101, Example 106 or Example 118 (respectively, compound represented by the above formula (1-1), (1-2), (1-3), (1-4) or (1-5), which will be hereinafter referred respectively to compound (1-1), (1-2), (1-3), (1-4) or (1-5)), or the control compound LY, was suspended in a 0.5% aqueous solution of methylcellulose, and the suspension was orally administered in a single dose to male SD rats (about 5 weeks old). For the solvent control group, a 0.5% aqueous solution of methylcellulose was administered alone. After 3 hours of administration, the brain was excised, and the cerebrum was collected. The cerebrum was homogenized with a 42% aqueous solution of formic acid, and was centrifuged at 100,000×g for 60 minutes. The resulting supernatant was neutralized with 1 M Tris, and the Aβ concentration in these samples were measured using the sandwich type ELISA method as described in Test Example 1. Furthermore, the compound (1-1) to (1-5) or control compound LY was orally administered to male SD rats repeatedly for 7 days, and the rats were subjected to histopathological and serological examinations, so as to assess the immunosuppressing effect of the compound.

The test system of data set [2] is β-amyloid protein (Aβ) secreted by E35 cells (H4 cells with APP751 gene). In words: Screening system using E35 cells for inhibition of production/secretion of β-amyloid protein (sandwich ELISA of Aβ in culture medium). Particulars: 24 hours with compound, Aβ in culture supernatant by ELISA, read-out: Inhibitory Activity for Production of A(EC50). The format is cell-based, human. As to the method: The activity of the compound inhibiting β-amyloid protein production was measured on E35 cells prepared by introducing APP751 gene, a gene of a human wild type β-amyloid protein precursor protein, to human glioma cells (H4 cells), by quantifying the amount of β-amyloid protein (Aβ) secreted to the culture medium by means of a sandwich type Enzyme-Linked Immunosorbent Assay (ELISA) method.
That is, E35 cells inoculated on a 96-well plate were cultured in an incubator at 37° C. which was maintained at equilibrium with 5% carbon dioxide, using Dulbecco's Modified Eagle's Medium containing inactivated 10% fetal bovine serum as the culture medium. After 24 hours from the inoculation, a test compound dissolved in a DMSO solution was added. The DMSO solution of the test compound was prepared at a concentration of 2000 times of the final concentration, such that the DMSO concentration in the culture medium would be 0.05%. After culturing for another 24 hours, the culture supernatant was recovered, and this was added to a 96-well plate for ELISA onto which a monoclonal antibody against Aβ, 25-1, was solid-phased. The plate was incubated at 4° C. for 16 to 20 hours. The plate was washed with phosphate buffer solution (pH 7.4), and then a biotinylated monoclonal antibody against Aβ, MA32-40, was added thereto. The plate was left to stand at 4° C. for 2 hours. The plate was washed again with phosphate buffer solution, and then alkaline phosphatase-conjugated streptavidin was added to conjugate streptavidin to biotin. Subsequently, the plate was washed with phosphate buffer solution. To this, Blue Phos (Kirkegaard & Perry Laboratories, Inc.) was added. After incubating the plate for an appropriate time, the reaction was terminated with an acid, and the absorbance for each well was measured. The amount of Aβ contained in the culture supernatant was determined from a calibration curve which was produced separately, and the amount was compared with that of control cells to which the compound was not added. Thus, the concentration at which 50% of the Aβ production is inhibited (EC50 value) was calculated. In addition, the 25-1 antibody and MA32-40 antibody used in ELISA were mouse monoclonal antibodies derived from the hybridoma cell clone lines, which were each produced and selected according to a standard method using Aβ25-35 and Aβ1-8 as antigens, respectively, and which specifically recognize their respective antigens. […]
The scores indicate ++++ for the case where EC50 was 5 nM or less; +++ for the case where EC50 was 5 to 50 nM; ++ for the case where EC50 was 50 to 500 nM; and + for the case where EC50 was 500 nM to 5 μM.

As a reminder, the EC50 is the concentration needed to bring the measured effect to its halfway point. Turning to `CC(C)[C@H](O)C(=O)N[C@@H](C)C(=O)N[C@@H]1C(=O)N(C)CCc2ccccc21` [LY, (N)—((S)-2-hydroxy-3-methyl-butyryl)-1-(L-alaninyl)-(S)-1-amino-3-methyl-4,5,6,7-tetrahydro-2H-3-benzoazepin-2-one, reference compound], in data set [1], the “difference between the dose exhibiting a statistically significant decrease in the intracerebral amount of Aβ and the dose exhibiting an immunosuppressing effect” value is “no sufficient difference was recognized”. Further, the EC50 in data set [2] lay in the range of 5 to 50 nM.
As usually defined, the melting point is the temperature, or range, at which the solid turns liquid. The compound `Cc1cc(C(=O)NCO)ncc1C(c1c(F)ccc(F)c1F)S(=O)(=O)c1ccc(C(F)(F)F)nc1` (centres unmarked) [Example 118, N-(1-hydroxymethyl)-4-methyl-5-[[[6-(trifluoromethyl)pyridin-3-yl]sulfonyl](2,3,6-trifluorophenyl)methyl]pyridine-2-carboxamide] showed a melting point of 181 to 182 °C. In addition, the “difference between the dose exhibiting a statistically significant decrease in the intracerebral amount of Aβ and the dose exhibiting an immunosuppressing effect” value in data set [1] (listed as (1-5)) is on record as “sufficient differences were recognized”. Further, the EC50 in data set [2] (Homo sapiens) was ≤ 5 nM.
Take `Cc1cc(C(=O)NCO)ncc1C(c1c(F)ccc(F)c1F)S(=O)(=O)c1ccc(Cl)cc1` (centres unmarked) [Example 120, 5-[[(4-Chlorophenyl)sulfonyl](2,3,6-trifluorophenyl)methyl]-N-(hydroxymethyl)-4-methylpyridine-2-carboxamide]: the melting point fell in the range of 177 to 178 °C. In data set [2] (Homo sapiens), the EC50 is ≤ 5 nM.
For `Cc1cc(C(=O)N(C)C)ncc1C(c1cc(F)ccc1F)[S+]([O-])c1ccc(F)cc1` (centres unmarked) [Example 22, 5-[(2,5-Difluorophenyl)[(4-fluorophenyl)sulfinyl]methyl]-N,N,4-trimethylpyridine-2-carboxamide], the “difference between the dose exhibiting a statistically significant decrease in the intracerebral amount of Aβ and the dose exhibiting an immunosuppressing effect” value in data set [1] (listed as (1-1)) is recorded as “sufficient differences were recognized; also recorded: sufficient difference”. Moreover, the concentration for a half-maximal effect (EC50) in data set [2] (Homo sapiens) was 500 to 5000 nM.
`Cc1cc(C(=O)NCCO)ncc1C(c1c(F)ccc(F)c1F)S(=O)(=O)c1ccc(F)cc1` (centres unmarked) [Example 94, 5-[[(4-Fluorophenyl)sulfonyl](2,3,6-trifluorophenyl)methyl]-N-(2-hydroxyethyl)-4-methylpyridine-2-carboxamide] registered a melting point of 164 to 165 °C. Moreover, in data set [2] (Homo sapiens), the half-maximal effective concentration (EC50) is ≤ 5 nM.
Taken in the same sequence, the figures for `Cc1cc(C(=O)NCCC[S+](C)[O-])ncc1C(c1cc(F)ccc1F)S(=O)(=O)c1ccc(F)cc1` (centres unmarked) [Example 73, 5-[(2,5-Difluorophenyl)[(4-fluorophenyl)sulfonyl]methyl]-4-methyl-N-[3-(methylsulfinyl)propyl]pyridine-2-carboxamide] were 170 to 173 °C and ≤ 5 nM.
Take `Cc1cc(C(=O)N2CCOCC2)ncc1C(c1cc(F)ccc1F)S(=O)(=O)c1ccc(F)cc1` (centres unmarked) [Example 77, 4-[[5-[(2,5-Difluorophenyl)[(4-fluorophenyl)sulfonyl]methyl]-4-methylpyridin-2-yl]carbonyl]morpholine]: the melting point lay within 165 to 167 °C. In data set [2] (Homo sapiens), the EC50 lay within 500 to 5000 nM.
`COc1ccc(S(=O)(=O)C(c2cnc(C(=O)NCCO)cc2C)c2cc(F)ccc2F)cc1F` (centres unmarked) [Example 47, 5-[(2,5-Difluorophenyl)[(3-fluoro-4-methoxyphenyl)sulfonyl]methyl]-N-(2-hydroxyethyl)-4-methylpyridine-2-carboxamide] came in with a melting point of 137 to 138 °C. Further, the EC50 in data set [2] (Homo sapiens) was in the range of 5 to 50 nM.
The compound `CNC(=O)c1cc(C)c(C(c2cc(F)ccc2F)S(=O)(=O)c2ccc(Cl)cc2)cn1` (centres unmarked) [Example 4, 5-[[(4-Chlorophenyl)sulfonyl](2,5-difluorophenyl)methyl]-N,4-dimethylpyridine-2-carboxamide] had a melting point of 200 to 201 °C. Besides, in data set [2] (Homo sapiens), the 50% effective concentration (EC50) was ≤ 5 nM.
On the same counts, the results for `COC(=O)NCCNC(=O)c1cc(C)c(C(c2cc(F)ccc2F)S(=O)(=O)c2ccc(F)cc2)cn1` (centres unmarked) [Example 84, Methyl[2-[[[5-[(2,5-difluorophenyl)[(4-fluorophenyl)sulfonyl]methyl]-4-methylpyridin-2-yl]carbonyl]amino]ethyl]carbamate] are 167 to 169 °C and ≤ 5 nM.
For the compound `Cc1cc(C(=O)NCO)ncc1C(c1c(F)ccc(F)c1F)S(=O)(=O)c1ccccc1` (centres unmarked) [Example 106, N-(1-hydroxymethyl)-4-methyl-5-[(phenylsulfonyl)(2,3,6-trifluorophenyl)methyl]pyridine-2-carboxamide], in data set [1] (listed as (1-4)), the “difference between the dose exhibiting a statistically significant decrease in the intracerebral amount of Aβ and the dose exhibiting an immunosuppressing effect” value was “sufficient differences were recognized”. For the same compound, the concentration for a half-maximal effect (EC50) in data set [2] (Homo sapiens) was ≤ 5 nM.
Consider `Cc1cc(C(=O)NCO)ncc1C(c1c(F)ccc(F)c1F)S(=O)(=O)c1ccc(F)cc1` (centres unmarked) [Example 101, 5-[[(4-Fluorophenyl)sulfonyl](2,3,6-trifluorophenyl)methyl]-N-(1-hydroxymethyl)-4-methylpyridine-2-carboxamide], for which the “difference between the dose exhibiting a statistically significant decrease in the intracerebral amount of Aβ and the dose exhibiting an immunosuppressing effect” value in data set [1] (listed as (1-3)) is on record as “sufficient differences were recognized”. Further, in data set [2] (Homo sapiens), the 50% effective concentration (EC50) was ≤ 5 nM.
`Cc1cc(C(=O)N(C)CCO)ncc1C(c1cc(F)ccc1F)S(=O)(=O)c1ccc(F)cc1` (centres unmarked) [Example 19, 5-[(2,5-Difluorophenyl)[(4-fluorophenyl)sulfonyl]methyl]-N-(2-hydroxyethyl)-N,4-dimethylpyridine-2-carboxamide] displayed a melting point of 123 to 125 °C. Also, the EC50 in data set [2] (Homo sapiens) was 500 to 5000 nM.
On the same counts, the results for `CNC(=O)c1cc(C)c(C(c2cc(F)ccc2F)S(=O)(=O)c2ccc(F)cc2)cn1` (centres unmarked) [Example 13, 5-[(2,5-difluorophenyl)[(4-fluorophenyl)sulfonyl]methyl]-N, 4-dimethylpyridine-2-carboxamide] are 201 to 202 °C and ≤ 5 nM.
In turn, `Cc1cc(C(=O)N(C)C)ncc1C(c1cc(F)ccc1F)S(=O)(=O)c1ccc(Cl)cc1` (centres unmarked) [Example 5, 5-[[(4-Chlorophenyl)sulfonyl](2,5-difluorophenyl)methyl]-N,N,4-trimethylpyridine-2-carboxamide] displayed a melting point of 207 to 208 °C. In addition, the concentration for a half-maximal effect (EC50) in data set [2] (Homo sapiens) was in the range of 50 to 500 nM.
As for `Cc1cc(C(N)=O)ncc1C(c1c(F)ccc(F)c1F)S(=O)(=O)c1ccc(OC(F)(F)F)cc1` (centres unmarked) [Example 123, 4-Methyl-5-[[[4-(trifluoromethoxy)phenyl]sulfonyl](2,3,6-trifluorophenyl)methyl]pyridine-2-carboxamide], the melting point is 219 to 220 °C. The EC50 in data set [2] (Homo sapiens) is ≤ 5 nM.
Taken in the same sequence, the figures for `Cc1cc(C(=O)NCCO)ncc1C(c1cc(F)ccc1F)S(=O)(=O)c1ccc(F)cc1` (centres unmarked) [Example 17, 5-[(2,5-Difluorophenyl)[(4-fluorophenyl)sulfonyl]methyl]-N-(2-hydroxyethyl)-4-methylpyridine-2-carboxamide] were 153 to 154 °C and ≤ 5 nM.
